Measurements taken from the METLIN SMRT retention time set (Domingo-Almenara et al. 2019).

test: gradient 5% acetonitrile 3 min, to 50% in 2 min, to 85% in 15 min, held 3 min, 100 µL/min; details: column: Zorbax Extend-C18 2.1 x 50 mm; eluents: water / acetonitrile, 0.1% formic acid
How it was run: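 Mixtures of ~100 pure standards were chromatographed on a Zorbax Extend-C18 column (2.1 × 50 mm, 1.8 μm) at 100 μL/min using water and acetonitrile, each with 0.1% formic acid. Detection used a quadrupole time-of-flight mass spectrometer in positive and negative ionization mode, and data collection spanned 3 months. Retention time was obtained from adduct peaks picked computationally and each checked manually.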

RP-LC retention time [s] | SMILES
766 | O=C(c1ccc2cc[nH]c2c1)N1C[C@@H]2C[C@H]1C[C@@H]2NS(=O)(=O)c1ccccc1
687 | O=C(Cc1ccccc1F)NCCc1nc(-c2ccc3c(c2)OCO3)n[nH]1
954 | CCn1cc(-c2nc(CC(=O)N3CCc4ccccc43)cs2)c2cccnc21
784 | CN(C)C(=O)c1csc(S(=O)(=O)N2CCC(C(=O)NCc3ccccc3Cl)CC2)c1
850 | O=C(C1=CN(c2ccc3c(c2)CCC3)c2ccccc2S1(=O)=O)N1CCOCC1
634 | Cc1nc([C@@H]2CCCN2C(=O)CCc2ccccc2)n[nH]1
573 | CC(=O)N1CCc2[nH]c3ccc(C(=O)NCc4ccc(N5CCN(C)CC5)cc4)cc3c2C1
1150 | O=C(CSc1nnc(-c2ccc(Br)cc2)o1)OCc1ccccc1
674 | O=C(NCc1cc(F)cc(F)c1)C1CCN(c2cnc(N3CCCC3)nc2)CC1
958 | COc1ccc(OCC(=O)N2CCc3cc(-c4csc(C)n4)ccc32)cc1
804 | O=C(NCc1ccc2c(c1)OCO2)c1nnc(-c2ccc(S(=O)(=O)N3CCOCC3)cc2)o1
936 | O=c1ccc(S(=O)(=O)N2CCCCCC2)cn1Cc1ccccc1F
945 | Cc1cccc(NC(=O)NC2CCN(c3cc(C)cc(C)c3)C2=O)c1 (configuration not stated)
747 | CC1=C(c2ccc(C)c(C)c2)S(=O)(=O)N=C1N1CCC(NC(=O)C2CCOC2)CC1 (configuration not stated)
1070 | Cc1cc2nn(CC(=O)Nc3ccc(F)c(Cl)c3)c(=O)n2c(Nc2ccccc2)n1
688 | O=C(Cn1nc2n(c1=O)CCCC2)Nc1ccc(Cl)cc1
980 | Cc1ccc(-c2cc3c4nn(CC(=O)NC5CCCCC5)c(=O)n4ccn3n2)cc1C
807 | COc1cc(OC)cc(C(=O)N2CCCC2COc2ccc(C(=O)N3CCCC3)cc2)c1 (configuration not stated)
807 | Cn1nc(C(=O)N2CCCN(c3cc(-c4ccc(Br)cc4)[nH]n3)CC2)c2ccccc21
1030 | COc1ccc(S(=O)(=O)N2CCCC(C(=O)Nc3cccc(SC)c3)C2)cc1C (configuration not stated)
1010 | Cc1ccc(CNC(=O)C2CCN(S(=O)(=O)c3cc(-c4noc(C5CC5)n4)sc3C)CC2)o1
989 | Cc1nc(-c2ccc3c(c2)n(CC(=O)N2c4ccccc4CC2C)c(=O)n3C(C)C)no1 (configuration not stated)
617 | CC(=O)N1c2ccc(S(=O)(=O)N3CCC(C(=O)Nc4cccnc4)CC3)cc2CC1C (configuration not stated)
678 | COCCn1cnc2c(-c3ccccc3)cn(CC(=O)NCC3CCCO3)c2c1=O (configuration not stated)
860 | O=C(Nc1ccccc1)C(=O)c1cn(CC(=O)N2CCOCC2)c2ccccc12
658 | O=C(NC1CCN(Cc2ccccc2)CC1)c1cc2n(n1)CCCN(Cc1ccc(F)cc1)C2=O

RP-LC retention time [s] | SMILES
995 | O=C(NCc1ccccc1F)c1ccc(NC(=O)C2CC2)cc1N1CCOCC1
599 | CN[C@H]1CN(c2ccc3c(=O)c(C(=O)O)cn(-c4nccs4)c3n2)C[C@@H]1OC
854 | O=C(NC1CCCC1)N1c2ccccc2CC1c1noc(C2CCOCC2)n1 (configuration not stated)
659 | Cc1cccc2nnc(N3CCCC(C(=O)NCc4cccs4)C3)n12 (configuration not stated)
793 | CCCCC(=O)N1CCCN(C2=NS(=O)(=O)C(c3ccccc3)=C2C)CC1
856 | O=C(NCc1cccs1)C1CN(S(=O)(=O)c2cccnc2)CC12CCCCC2 (configuration not stated)
1100 | Cc1c(S(=O)(=O)N2CCCC(C)C2)c(C)n(C)c1C(=O)Nc1cccc(F)c1 (configuration not stated)
638 | O=C(Cn1nc2n(c1=O)CCCC2)Nc1ccc2c(c1)OCO2
592 | COc1ccc(CSc2nccc3c2ccn3CC(=O)N2CCN(c3ccccn3)CC2)cc1
710 | Cc1ccc(Cn2c(=O)n(CCNC(=O)C3CCOC3)c3ncccc32)cc1 (configuration not stated)
649 | O=C(NCC1CCCO1)C1CCN(C(=O)c2ncn3c2COC(c2ccccc2)C3)CC1 (configuration not stated)
670 | COC(=O)c1ccc2c(=O)n(-c3ccc(Cl)cc3)c(N3CCN(C)CC3)nc2c1
600 | COc1ccc(N(C)C(=O)c2nc(C)n(C3CCN(S(C)(=O)=O)CC3)c2C)cc1
640 | O=C(NCCN1CCc2ccccc2C1)c1cccc2c1CCN2C(=O)C1CC1
1270 | Cc1cc(C)c(S(=O)(=O)N2CCCC2c2nc(-c3cccc(F)c3)no2)cc1C (configuration not stated)
606 | Cc1nn(Cc2ccc(C(=O)N3CCN(c4ccccn4)CC3)cc2)c(C)c1S(=O)(=O)N(C)C
782 | O=C(c1cncc(Br)c1)N1CCC(Cc2nnc(-c3ccccc3)o2)CC1
644 | O=C(C1CCN(c2ccc(Sc3ccc(Cl)cc3)nn2)CC1)N1CCN(c2ccccn2)CC1
654 | COc1ccc(OC)c(NC(=O)Cn2c(N3CCCC3)nc(C)cc2=O)c1
576 | O=C(CN1CCN(c2ccccn2)CC1)Nc1ccc(F)c(F)c1
851 | CSc1ccccc1NS(=O)(=O)c1cc2c(s1)CCN(C(=O)C1CC1)C2
624 | CN(C)C(=O)c1cn(C2CN(C(=O)c3ccc(C#N)cc3)C2)nn1
652 | O=C(Cn1ncc2c(N3CCN(c4ccccn4)CC3)ncnc21)Nc1ccc(Br)cc1
892 | O=C(C1CCN(c2nc3ccc(-c4cccc(F)c4)nc3s2)CC1)N1CCOCC1
866 | CC(C)CC(=O)N(CC(=O)N(Cc1ccc2c(c1)OCO2)Cc1ccco1)CC1CCCO1 (configuration not stated)

Continued, compound first:

SMILES | RP-LC retention time [s]
O=C(Cc1ccc2c(c1)OCO2)N(CC1CCCO1)c1nc2c(F)cc(F)cc2s1 (configuration not stated) | 1180
O=c1ccc(-c2nc(-c3cccc(Br)c3)no2)cn1Cc1ccncc1 | 746
Cc1cc(NC(=O)Cn2ccn3nc(-c4ccc(F)cc4)c(CO)c3c2=O)n[nH]1 | 666
O=C(OCc1cc(-c2cc3ccccc3o2)on1)c1ccccc1S(=O)(=O)C(F)F | 1090
COC(=O)C1=C(C)NC(C)=C(C(=O)OC)C1c1cccc(NC(=O)NCCCN2CCC(c3cccc(OC)c3)CC2)c1 | 833
O=S(=O)(NC1CCCC1)c1ccc(-c2cc(C(F)(F)F)on2)o1 | 1060
CC(C)CN(CC1CN(C(=O)COc2ccccc2)CCO1)C(=O)c1ccccc1 (configuration not stated) | 851
CCCNC(=O)CCc1cc2cc(OC)ccc2[nH]c1=O | 634
COc1ccc(-c2nnc(Cc3nc(-c4ccc(C)c(C)c4)no3)o2)cc1 | 1110
COC(=O)c1ncn2c1C(=O)N(c1ccc(C)cc1C)C(C)(C(=O)NC1CCCC1)C2 (configuration not stated) | 753
Cc1nc(-c2ccc(S(=O)(=O)Nc3ccc(S(N)(=O)=O)cc3)cc2)co1 | 706
COc1cc(=O)c(C(N)=O)nn1-c1ccc(C)cc1 | 612
CCNC(=O)c1cc(N(C)C)nc2c(Cl)cccc12 | 730
CCOc1ccc(NC(=O)C2CC(=O)N(CCc3c[nH]c4ccc(Cl)cc34)C2)cc1 (configuration not stated) | 870
COc1ccc(Cl)cc1NC(=O)c1cnc2sccn2c1=O | 839
COCCn1cc(CCNC(=O)c2cncc(Br)c2)c2cccnc21 | 678
NC(=O)C(=O)c1cn(Cc2ccc(F)cc2)c2ccccc12 | 811
Cc1ccc(Cn2cc(-c3noc(-c4ccc(N(C)C)cc4)n3)nn2)cc1 | 1070

SMILES | RP-LC retention time [s]
O=S(=O)(c1cccn2cnnc12)N(Cc1cccc(F)c1)c1ccc(F)cc1 | 822
CS(=O)(=O)N1CCC(CC(=O)NC2CCCCC2)C1 (configuration not stated) | 668
CN(C)c1cccc(-c2nc(-c3ccc4nnn(C)c4c3)no2)c1 | 1070
Cc1nc2c(sc3nc(-c4ccccc4)ccc32)c(=O)n1CC(=O)Nc1ccc(C(C)C)cc1 | 1200
Cc1nc(-c2cc(S(=O)(=O)NCCCN3CCC(C)CC3)c(C)s2)sc1C | 699
CNC(=O)[C@@H]1CN(C(=O)c2ccoc2C)C[C@H]1c1nc(C)no1 | 612
CCOC(=O)c1oc2ccccc2c1NC(=O)c1ccccc1S(C)(=O)=O | 800
O=C(NN1CCCCC1)NN1CCCCC1 | 626
COc1ccc(-c2noc(-c3ccc(NCc4ccc(C)o4)nc3)n2)cc1 | 1150
CCc1ccc(CNC(=O)c2c(C)sc3ccn(CC)c(=O)c23)cc1 | 959
O=C(Nc1ccc(F)cc1)c1cn(CC(O)c2ccc3c(c2)OCO3)nn1 (configuration not stated) | 777
COc1ccc(-c2nc(N(CCCN3CCOCC3)Cc3ccco3)c3ccccc3n2)cc1 | 588
Cn1nccc1-c1cccc(-c2noc(-c3cc(F)ccc3Cl)n2)c1 | 1190
O=C(Nc1ccc(N2CCOCC2)nc1)NC1CCCC1 | 585
Cc1ccc(-c2nc(C)c3c(n2)N(Cc2ccccn2)C(=O)CC3)cc1 | 771
Cc1nc(CC(=O)NCc2ccccc2C(F)(F)F)sc1C(=O)NCC(C)C | 847
Brc1ccc(-c2noc(Cc3nc(-c4ccc5c(c4)OCO5)cs3)n2)cc1 | 1270
CCN1C(=O)COc2ccc(-c3nc(NC(=O)CCC4CCCCC4)sc3C)cc21 | 1240
